Data as given in patent publication US12195427B2, “MASP-2 inhibitors and methods of use” (priority 2018, dated 2025).
pKi: −log10 of the molar value. Structures can show the parent of a compound that is named as a salt.

Tests used:
human α-thrombin = human α-thrombin (Homo sapiens (Human), UniProt P00734); experiment: Enzymatic Assay for Thrombin (Boc-VPR-AMC); type: biochemical
MASP-2 CCP2-SP = MASP-2 CCP2-SP (Homo sapiens (Human), UniProt O00187); experiment: MASP-2 co-crystallization, X-ray crystallography and structure analysis (H-bonds, van der Waals contacts); set-up: van der Waals contact distance, MASP-2 HIS 483 atom CD2 / van der Waals contact distance, MASP-2 HIS 483 atom NE2 / van der Waals contact distance, SER 654 C to compound atom / van der Waals contact distance, SER 654 O to compound atom / van der Waals contact distance, TRP 655 C to compound atom / van der Waals contact distance, MASP-2 GLY 528 atom CA / van der Waals contact distance TRP 655 atom CZ3 / van der Waals contact distance TRP 655 atom N / van der Waals contact distance TRP 655 atom CE3 / van der Waals contact distance GLY 656 atom C / van der Waals contact distance GLY 656 atom CA / van der Waals contact distance GLY 656 atom O / van der Waals contact distance, MASP-2 TYR 607 atom CD1 / van der Waals contact distance, MASP-2 PRO 606 atom O / d(C3,CA1) / d(CA1,N1)2 / d(H4,O1) / d(H4,O2) / d(O1,O2) / d(CA1,O2) / d(CA6,O1) / d(CA6,O2) / d(CA1,C5) / d(O2,H3) / d(N2,C2) / d(CA5,N2) / d(N2,C4) / d(N2,C6) / d(N2,CA3) / d(N2,O3) / d(O4,H2): unit not given beside the values; conditions: for H-bond distance to MASP-2 GLY 656 atom N: GLY 656 N; for H-bond distance to MASP-2 GLY 656 atom O: GLY 656 O; for H-bond distance to MASP-2 SER 654 atom O: SER 654 O;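 on Ligand-pharmacophore element distance, pharmacophore element C2: distance from averaged pharmacophore element to bound ligand; missing value means element absent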;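 on Ligand-pharmacophore element distance, pharmacophore element C3: distance from averaged pharmacophore element to bound ligand; missing value means element absent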;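 on Ligand-pharmacophore element distance, pharmacophore element C4: distance from averaged pharmacophore element to bound ligand; missing value means element absent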;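 on Ligand-pharmacophore element distance, pharmacophore element C5: distance from averaged pharmacophore element to bound ligand; missing value means element absent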
MASP-2 CCP2-SP, sequence (O00187 445-686): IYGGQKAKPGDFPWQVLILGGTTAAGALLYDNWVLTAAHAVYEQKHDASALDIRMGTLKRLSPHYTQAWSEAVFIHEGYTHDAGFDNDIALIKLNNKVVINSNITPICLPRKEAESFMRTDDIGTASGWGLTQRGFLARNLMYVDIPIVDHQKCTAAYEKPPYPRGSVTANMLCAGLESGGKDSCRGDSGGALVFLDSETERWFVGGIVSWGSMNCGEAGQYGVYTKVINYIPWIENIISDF
MASP-2 CCP2-SP, sequence (O00187 364-432 partner): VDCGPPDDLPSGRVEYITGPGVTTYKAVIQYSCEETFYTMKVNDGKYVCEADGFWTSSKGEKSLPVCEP
Method in brief: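 Human MASP-2 CCP2-SP, untagged or 6His-tagged, was expressed in E. coli and crystallized. Crystals were soaked with inhibitor in crystallization solution, flash-cooled in liquid nitrogen, and diffracted with synchrotron X-rays (wavelength 1.0). Structures were solved by molecular replacement from 1Q3X and partially refined.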

[1] = Table A5-1 pharmacophore: distance between elements, S2/S1 region
[2] = Table A5-2 pharmacophore distance, S3/S4 region
[3] = Table A7-1, between pharmacophore elements of the bound compound
[4] = Table A8-6, nearest protein atom in cell to the left

## C[C@H](NC(=O)[C@H](N)C1Cc2ccccc2C1)C(=O)NCc1ccc2nc(N)[nH]c2c1 [compound 1059]
Human α-thrombin
  pKi: < 4.60
MASP-2 CCP2-SP; Table A1 (H-Bonds), ASP 627 OD1
  H-bond distance to MASP-2 ASP 627 atom OD1: 2.99
MASP-2 CCP2-SP; Table A1 (H-Bonds), ASP 627 OD2
  H-bond distance to MASP-2 ASP 627 atom OD2: 2.95
MASP-2 CCP2-SP; Table A1 (H-Bonds), GLN 665 O
  H-bond distance to MASP-2 GLN 665 atom O: 3.31
MASP-2 CCP2-SP; Table A1 (H-Bonds)
  H-bond distance to MASP-2 GLY 656 atom N: 3.13
  H-bond distance to MASP-2 GLY 656 atom O: 2.94
  H-bond distance to MASP-2 SER 654 atom O: 2.95
MASP-2 CCP2-SP; Table A1 (H-Bonds), SER 657 O
  H-bond distance to MASP-2 SER 657 atom O: 2.77
MASP-2 CCP2-SP; Table A1 (H-Bonds), SER 657 OG
  H-bond distance to MASP-2 SER 657 atom OG: 2.94
MASP-2 CCP2-SP; Table A2-1
  van der Waals contact distance, MASP-2 HIS 483 atom CD2: 3.69
MASP-2 CCP2-SP; Table A2-4
  van der Waals contact distance, MASP-2 TYR 607 atom CD1: 3.89
MASP-2 CCP2-SP; Table A2-5: TYR 607 (CE1, CE2, OH), PRO 608 (CD, CG), SER 611 (CA)
  van der Waals contact distance, MASP-2 amino acid atom to compound atom: 3.89
MASP-2 CCP2-SP; Table A2-9, ARG 630, AA atoms CG, CZ
  van der Waals contact distance, MASP-2 amino acid atom to compound atom: 3.14
MASP-2 CCP2-SP; Table A2-11
  van der Waals contact distance, VAL 653 CG1 to compound atom: 3.81
MASP-2 CCP2-SP; Table A2-13, MASP-2 TRP 655 CZ3
  van der Waals contact distance TRP 655 atom CZ3: 3.84
MASP-2 CCP2-SP; Table A2-13, MASP-2 TRP 655 O
  van der Waals contact distance TRP 655 atom O: 3.88
MASP-2 CCP2-SP; Table A4-1, element C2
  Ligand-pharmacophore element distance, pharmacophore element C2: 1.86
MASP-2 CCP2-SP; Table A4-1, element C3
  Ligand-pharmacophore element distance, pharmacophore element C3: 0
MASP-2 CCP2-SP; Table A4-1, element C4
  Ligand-pharmacophore element distance, pharmacophore element C4: 0
MASP-2 CCP2-SP; Table A4-1, element C5
  Ligand-pharmacophore element distance, pharmacophore element C5: 0
MASP-2 CCP2-SP; Table A4-1, element C6
  Ligand-pharmacophore element distance, pharmacophore element C6: 0
MASP-2 CCP2-SP; Table A4-1, element C7
  Ligand-pharmacophore element distance, pharmacophore element C7: 0
MASP-2 CCP2-SP; Table A4-1, element CA1
  Ligand-pharmacophore element distance, pharmacophore element CA1: 1.27
MASP-2 CCP2-SP; Table A4-1, element CA2
  Ligand-pharmacophore element distance, pharmacophore element CA2: 0.8
MASP-2 CCP2-SP; Table A4-1, element CA3
  Ligand-pharmacophore element distance, pharmacophore element CA3: 0
MASP-2 CCP2-SP; Table A4-1, element CA4
  Ligand-pharmacophore element distance, pharmacophore element CA4: 0
MASP-2 CCP2-SP; Table A4-1, element CA5
  Ligand-pharmacophore element distance, pharmacophore element CA5: 0
MASP-2 CCP2-SP; Table A4-1, element CA6
  Ligand-pharmacophore element distance, pharmacophore element CA6: 0
MASP-2 CCP2-SP; [1]
  d(CA1,N1): 1.85
  d(CA1,O1): 5.32
  d(CA1,O2): 5.00
  d(H4,O1): 4.89
  d(H4,O2): 4.48
  d(O1,O2): 3.20
MASP-2 CCP2-SP; [2]
  d(N2,C2): 3.70
  d(N2,CA2): 5.88
  d(O2,H3): 4.97
  d(O2,N2): 2.67
MASP-2 CCP2-SP; Table A6-1 pharmacophore angle
  a(CA1, O1, O2): 102.43
  a(O1, O2, H4): 140.37
MASP-2 CCP2-SP; Table A6-1 pharmacophore angle, all compounds with protonatable center N1 except Methyl-amino-pyridine
  A(N1, CA1, O1) a): 176.16
MASP-2 CCP2-SP; Table A6-2 pharmacophore angle
  a(O1, O2, H3): 148.70
  a(O1, O2, N2): 132.46
  a(O2, N2, C2): 139.14
  a(O2, N2, CA2): 153.47
MASP-2 CCP2-SP; [3]
  Pharmacophore torsion angle a(H4, O1, O2, H3): 47.74
  Pharmacophore torsion angle a(H4, O1, O2, N2): 121.97
  Pharmacophore torsion angle a(N1, CA1, O2, H4): −131.19
  Pharmacophore torsion angle a(O1, H4, O2, CA1): −89.48
  Pharmacophore torsion angle a(O1, O2, N2, C2): 129.30
MASP-2 CCP2-SP; Table A7-2, between pharmacophore elements of the bound compound
  Pharmacophore torsion angle a(O1, O2, N2, CA2): 134.69
MASP-2 CCP2-SP; Table A8-6, 6th residue column, nearest protein atom in cell to the left
  Pharmacophore protein distance to MET_658 (first MET_658 column): 1.94
MASP-2 CCP2-SP; [4]
  Pharmacophore protein distance to GLY_528: 3.81
  Pharmacophore protein distance to PHE_529: 2.97
  Pharmacophore protein distance to PRO_608: 3.70
  Pharmacophore protein distance to SER_611: 2.61
MASP-2 CCP2-SP; Table A8-6, pharmacophore elements C6, CA3, O3, H1, nearest protein atom in cell to the left
  Pharmacophore protein distance to TRP_655: 3.64

## C[C@H](NC(=O)[C@H]1C[C@H](Cc2ccccc2)CN1)C(=O)NCc1cnc2c(c1)c(Cl)cn2C [compound 1450, (2R,4S)-4-Benzyl-N—((S)-1-(((3-chloro-1-methyl-1H-pyrrolo[2,3-b]pyridin-5-yl)methyl)amino)-1-oxopropan-2-yl)pyrrolidine-2-carboxamide Dihydrochloride]
Human α-thrombin
  pKi: 5.00 to 5.60
MASP-2 CCP2-SP; Table A1 (H-Bonds)
  H-bond distance to MASP-2 GLY 656 atom N: 3.04
  H-bond distance to MASP-2 GLY 656 atom O: 2.78
  H-bond distance to MASP-2 SER 654 atom O: 2.97
MASP-2 CCP2-SP; Table A2
  van der Waals contact distance, MASP-2 amino acid atom to compound atom: 3.44
MASP-2 CCP2-SP; Table A2-1
  van der Waals contact distance, MASP-2 HIS 483 atom CD2: 3.9
  van der Waals contact distance, MASP-2 HIS 483 atom NE2: 3.88
MASP-2 CCP2-SP; Table A2-2
  van der Waals contact distance, MASP-2 GLY 528 atom CA: 3.89
MASP-2 CCP2-SP; Table A2-11
  van der Waals contact distance, SER 654 C to compound atom: 3.81
MASP-2 CCP2-SP; Table A2-13, MASP-2 GLY 656 CA
  van der Waals contact distance GLY 656 atom CA: 3.75
MASP-2 CCP2-SP; Table A2-13, MASP-2 TRP 655 N
  van der Waals contact distance TRP 655 atom N: 3.66
